# Results reported in patent US20240359037A1, “Ultrasound Method” (ACT THERAPEUTICS LTD, priority 2021, published 2024).
# Test system: subcutaneous prostate cancer model (PC3)
# Assay: Tumour specific uptake of Evans Blue vs. Enhancement MI
# Format: in vivo, mice
# Details: Enhancement 0.5 MHz MI 0.2 compared to MI=0 (no ultrasound); 30 min after treatment
# Procedure: To investigate the effect of MI variance of the US Enhancement field, tumour specific uptake of Evans Blue (EB, fluorescent dye) has been investigated in a subcutaneous prostate cancer model (PC3) in mice. Five groups with Enhancement insonation MIs of 0, 0.1, 0.2, 0.3 and 0.4 were investigated (N=3 animals per group). […] 30 min after treatment, the tumours were excised and the amount of EB was measured by spectrophotometry at 620 nm.
compound,measurement,value
Cc1cc(-c2ccc(/N=N/c3ccc4c(S(=O)(=O)O)cc(S(=O)(=O)O)c(N)c4c3O)c(C)c2)ccc1/N=N/c1ccc2c(S(=O)(=O)O)cc(S(=O)(=O)O)c(N)c2c1O [Evans Blue],increase in tumour specific uptake,~60%
